“And” between values parts separate entries of the source, which are not always exact repeats. Equal entries are not always repeated.
Columns and labels:
Mus musculus [1] = test: In vivo inhibition of BACE-1 in triple transgenic mouse model of Alzheimer's disease assessed as reduction in brain insoluble amyloid beta-40 level administered intranasally qd for 4 days by ELISA; format: functional, organism-based
Cathepsin D = Cathepsin D (Homo sapiens, UniProt P07339); test: Inhibition of cathepsin D in human liver using Lys-Lys-Pro-Ala-Glu-Phe-Phe-Ala-Leu-Lys as substrate by spectrofluorometric analysis; conditions: read-out: Ki(app)
Chain of Cathepsin D (P07339 65-162 limits assumed): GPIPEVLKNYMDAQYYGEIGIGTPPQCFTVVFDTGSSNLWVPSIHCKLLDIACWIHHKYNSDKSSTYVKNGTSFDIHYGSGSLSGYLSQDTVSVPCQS
Chain of Cathepsin D (P07339 169-412 limits assumed): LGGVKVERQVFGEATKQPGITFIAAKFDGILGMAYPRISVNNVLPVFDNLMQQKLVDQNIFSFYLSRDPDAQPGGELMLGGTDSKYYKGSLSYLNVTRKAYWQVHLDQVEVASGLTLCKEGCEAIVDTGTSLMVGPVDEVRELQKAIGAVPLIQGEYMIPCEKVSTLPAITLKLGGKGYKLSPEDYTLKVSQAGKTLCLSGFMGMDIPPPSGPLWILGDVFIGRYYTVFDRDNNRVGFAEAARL

Beta-secretase 1 [2] = molecular target: T1, Beta-secretase 1 (Homo sapiens, UniProt P56817); test: Inhibition of BACE-1 in human SH-SY5Y cells expressing wild-type APP assessed as reduction in amyloid beta-40 production after 16 hrs by sandwich ELISA
T1 sequence (P56817 whole entry): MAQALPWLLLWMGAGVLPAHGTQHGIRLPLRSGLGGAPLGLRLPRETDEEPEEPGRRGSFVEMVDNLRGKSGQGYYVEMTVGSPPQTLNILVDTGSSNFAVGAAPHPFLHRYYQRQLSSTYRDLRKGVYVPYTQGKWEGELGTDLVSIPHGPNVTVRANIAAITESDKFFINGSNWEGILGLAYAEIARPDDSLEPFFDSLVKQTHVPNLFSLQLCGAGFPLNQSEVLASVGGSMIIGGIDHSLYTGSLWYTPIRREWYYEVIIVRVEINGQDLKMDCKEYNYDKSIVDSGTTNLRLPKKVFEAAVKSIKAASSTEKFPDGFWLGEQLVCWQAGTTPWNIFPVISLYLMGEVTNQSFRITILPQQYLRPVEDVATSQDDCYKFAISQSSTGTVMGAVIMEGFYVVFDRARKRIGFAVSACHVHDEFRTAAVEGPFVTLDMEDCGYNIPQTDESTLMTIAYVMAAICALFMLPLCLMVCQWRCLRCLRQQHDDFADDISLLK

Beta-secretase 1 [3] = molecular target: Beta-secretase 1 (Cricetulus griseus, UniProt G3IAK4); test: Inhibition of BACE-1 in CHO cells expressing wild-type APP assessed as reduction in amyloid beta-40 production after 6 hrs by sandwich ELISA
Chain of Beta-secretase 1 (Cricetulus griseus, UniProt G3IAK4) (G3IAK4 whole entry): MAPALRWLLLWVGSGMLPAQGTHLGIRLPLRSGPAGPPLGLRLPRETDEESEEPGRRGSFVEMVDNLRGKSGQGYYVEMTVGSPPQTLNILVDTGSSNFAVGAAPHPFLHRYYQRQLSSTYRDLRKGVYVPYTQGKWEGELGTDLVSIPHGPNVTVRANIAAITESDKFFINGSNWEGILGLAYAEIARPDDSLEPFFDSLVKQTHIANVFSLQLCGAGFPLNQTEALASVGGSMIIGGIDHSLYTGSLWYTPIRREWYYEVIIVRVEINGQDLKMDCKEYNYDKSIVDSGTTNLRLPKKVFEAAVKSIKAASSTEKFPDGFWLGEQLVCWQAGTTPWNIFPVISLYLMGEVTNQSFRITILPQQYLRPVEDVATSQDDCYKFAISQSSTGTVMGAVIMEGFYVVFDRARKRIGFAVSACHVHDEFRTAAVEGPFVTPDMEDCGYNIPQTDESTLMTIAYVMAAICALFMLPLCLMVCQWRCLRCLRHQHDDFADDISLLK

[4] = Cytotoxicity against human SH-SY5Y cells expressing wild-type APP assessed as cell viability at 600 uM by trypan blue dye exclusion assay relative to control; format: cell-based; conditions: read-out: Activity
Mus musculus [5] = test: Toxicity in triple transgenic mouse model of Alzheimer's disease administered intranasally qd for 4 days; format: organism-based; conditions: in vivo, inhaled_or_intranasal, 96 h
Beta-secretase 1 [6] = molecular target: T1, Beta-secretase 1; test: Inhibition of recombinant BACE-1 (unknown origin) expressed in Escherichia coli measured for 5 to 30 mins by spectrofluorometric analysis; conditions: read-out: Ki(app)
[7] = Cytotoxicity against CHO cells expressing wild-type APP assessed as cell viability at 600 uM by neutral red uptake assay relative to control; format: cell-based, Cricetulus griseus; conditions: chinese hamster, read-out: Activity
Mus musculus [8] = test: In vivo inhibition of BACE-1 in triple transgenic mouse model of Alzheimer's disease assessed as reduction in brain soluble amyloid beta-40 level administered intranasally qd for 4 days by ELISA; format: functional, organism-based

Ki (Cathepsin D): 31 µM and 30.8 µM
EC50 (Beta-secretase 1 [2]): 217 µM
EC50 (Beta-secretase 1 [3]): 73 µM
Ki (Beta-secretase 1 [6]): 416 µM
Structure (SMILES): C=C1C(=O)C(C)=C(C)C1(C)C
inhibition (Mus musculus [1]): Dose-dependent effect
viability at 600 µM [4]: > 90%
Activity (Mus musculus [5]): Non-toxic
viability at 600 µM [7]: > 90%
inhibition (Mus musculus [8]): Dose-dependent effect

Source: ChEMBL document CHEMBL3297700, “Dose-dependent inhibition of BACE-1 by the monoterpenoid 2,3,4,4-tetramethyl-5-methylenecyclopent-2-enone in cellular and mouse models of Alzheimer's disease” (J Nat Prod, 2014)
